According to ChEMBL document CHEMBL1150758, “Heyneanine hydroxyindolenine, a new indole alkaloid from Ervatamia coronaria var. plena” (J Nat Prod, 1988):
Activity calls are given as the source filed them. The calls are words filed in the database; no cut-off is given here.

What was measured:
[1] = test system: KB; assay: Cytotoxicity against human KB cells; assay type: functional, cell-based
[2] = test system: P388; assay: Cytotoxicity against mouse P388 cells; assay type: functional, cell-based

| Compound | Activity [1] | Activity [2] |
| --- | --- | --- |
| CC[C@H]1C[C@H]2C[C@@]3(C(=O)OC)c4[nH]c5ccccc5c4CCN(C2=O)[C@@H]13 | inactive | inactive |
| COC(=O)[C@@]12C[C@@H]3C[C@H]([C@H](C)O)[C@@H]1N(CC[C@]1(O)C2=Nc2ccc(OC)cc21)C3 | inactive | inactive |
| CC[C@H]1C[C@@H]2CN3CC[C@]4(O)C(=Nc5ccc(OC)cc54)[C@](C(=O)OC)(C2)[C@H]13 | inactive | inactive |
| CC[C@H]1C[C@@H]2CN3CC[C@]4(O)C(=Nc5ccccc54)[C@](C(=O)OC)(C2)[C@H]13 | inactive | inactive |
| COC(=O)[C@@]12C[C@@H]3C[C@H]([C@H](C)O)[C@@H]1N(CC[C@]1(O)C2=Nc2ccccc21)C3 | inactive | inactive |
